Results as given in ChEMBL document CHEMBL3875154 (Eur J Med Chem, 2016).

Assays:
[1] = Inhibition of human PDE4 catalytic domain using FAM-3',5'-cAMP as substrate after 1 hr by fluorescence polarization assay
[2] = species on record: Homo sapiens; assay: Potency index, ratio of rolipram IC50 to test compound IC50 for human PDE4 catalytic domain
[3] = target: T1, cAMP and cAMP-inhibited cGMP 3',5'-cyclic phosphodiesterase 10A (Homo sapiens, UniProt Q9Y233); assay: Inhibition of human PDE10A2 using FAM-3',5'-cAMP as substrate after 1 hr by fluorescence polarization assay
[4] = target: T2, Dual 3',5'-cyclic-AMP and -GMP phosphodiesterase 11A (Homo sapiens, UniProt Q9HCR9); assay: Inhibition of human PDE11A at 10^4 nM using FAM-3',5'-cAMP as substrate after 1 hr by fluorescence polarization assay relative to control
[5] = tested on: BV-2; assay: Antineuroinflammatory activity in mouse BV2 cells assessed as inhibition of LPS-induced TNFalpha production; format: functional, cell-based
[6] = target: T3, Dual specificity calcium/calmodulin-dependent 3',5'-cyclic nucleotide phosphodiesterase 1A (Homo sapiens, UniProt P54750); assay: Inhibition of human PDE1A using FAM-3',5'-cAMP as substrate after 1 hr by fluorescence polarization assay
[7] = target: T4, High affinity cGMP-specific 3',5'-cyclic phosphodiesterase 9A (Homo sapiens, UniProt O76083); assay: Inhibition of human PDE9A2 at 10^4 nM using FAM-3',5'-cAMP as substrate after 1 hr by fluorescence polarization assay relative to control
[8] = target: T5, cGMP-specific 3',5'-cyclic phosphodiesterase (Homo sapiens, UniProt O76074); assay: Inhibition of human PDE5A using FAM-3',5'-cAMP as substrate after 1 hr by fluorescence polarization assay
[9] = target: T1, cAMP and cAMP-inhibited cGMP 3',5'-cyclic phosphodiesterase 10A; assay: Inhibition of human PDE10A2 at 10^4 nM using FAM-3',5'-cAMP as substrate after 1 hr by fluorescence polarization assay relative to control
[10] = target: T2, Dual 3',5'-cyclic-AMP and -GMP phosphodiesterase 11A; assay: Inhibition of human PDE11A using FAM-3',5'-cAMP as substrate after 1 hr by fluorescence polarization assay
[11] = target: T6, cGMP-dependent 3',5'-cyclic phosphodiesterase (Homo sapiens, UniProt O00408); assay: Inhibition of human PDE2A at 10^4 nM using FAM-3',5'-cAMP as substrate after 1 hr by fluorescence polarization assay relative to control
[12] = target: T7, High affinity 3',5'-cyclic-AMP phosphodiesterase 7A (Homo sapiens, UniProt Q13946); assay: Inhibition of human PDE7A at 10^4 nM using FAM-3',5'-cAMP as substrate after 1 hr by fluorescence polarization assay relative to control
[13] = target: T8, 3',5'-cyclic-AMP phosphodiesterase 4B (Homo sapiens, UniProt Q07343); assay: Inhibition of full length human PDE4B1 using FAM-3',5'-cAMP as substrate after 1 hr by fluorescence polarization assay
[14] = target: T9, cGMP-inhibited 3',5'-cyclic phosphodiesterase 3B (Homo sapiens, UniProt Q13370); assay: Inhibition of human PDE3B using FAM-3',5'-cAMP as substrate after 1 hr by fluorescence polarization assay
Target sequence in this assay (Q13370 whole entry): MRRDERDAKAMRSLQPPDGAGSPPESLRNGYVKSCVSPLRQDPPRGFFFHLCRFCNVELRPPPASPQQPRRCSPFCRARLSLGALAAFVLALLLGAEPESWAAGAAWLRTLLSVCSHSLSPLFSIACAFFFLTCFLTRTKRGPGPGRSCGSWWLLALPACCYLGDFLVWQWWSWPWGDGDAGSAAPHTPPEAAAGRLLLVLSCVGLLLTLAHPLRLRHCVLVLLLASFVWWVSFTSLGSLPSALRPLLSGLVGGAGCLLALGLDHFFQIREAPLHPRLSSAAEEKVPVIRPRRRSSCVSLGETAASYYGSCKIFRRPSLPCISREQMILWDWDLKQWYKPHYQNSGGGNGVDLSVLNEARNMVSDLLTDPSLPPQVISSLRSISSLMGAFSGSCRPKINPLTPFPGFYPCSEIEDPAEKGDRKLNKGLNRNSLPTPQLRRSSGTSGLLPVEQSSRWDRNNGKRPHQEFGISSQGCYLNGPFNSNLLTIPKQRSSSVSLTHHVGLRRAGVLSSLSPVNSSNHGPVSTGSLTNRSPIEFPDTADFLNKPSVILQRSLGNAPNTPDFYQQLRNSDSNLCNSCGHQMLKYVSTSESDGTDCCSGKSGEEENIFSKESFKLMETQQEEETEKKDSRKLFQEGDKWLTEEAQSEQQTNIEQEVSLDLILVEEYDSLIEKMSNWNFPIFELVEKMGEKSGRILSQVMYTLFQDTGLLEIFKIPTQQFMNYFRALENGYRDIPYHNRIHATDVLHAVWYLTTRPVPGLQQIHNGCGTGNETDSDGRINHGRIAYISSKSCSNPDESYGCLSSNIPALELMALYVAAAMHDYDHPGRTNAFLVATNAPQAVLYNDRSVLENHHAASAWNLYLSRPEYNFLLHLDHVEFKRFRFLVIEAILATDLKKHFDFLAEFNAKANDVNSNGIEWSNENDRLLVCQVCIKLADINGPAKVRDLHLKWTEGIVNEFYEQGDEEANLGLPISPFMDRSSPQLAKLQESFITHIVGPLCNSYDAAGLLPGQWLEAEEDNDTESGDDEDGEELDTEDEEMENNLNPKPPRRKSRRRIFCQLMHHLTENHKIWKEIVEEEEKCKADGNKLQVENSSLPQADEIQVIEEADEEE

[15] = target: T3, Dual specificity calcium/calmodulin-dependent 3',5'-cyclic nucleotide phosphodiesterase 1A; assay: Inhibition of human PDE1A at 10^4 nM using FAM-3',5'-cAMP as substrate after 1 hr by fluorescence polarization assay relative to control
[16] = target: T10, 3',5'-cyclic-AMP phosphodiesterase 4A (Homo sapiens, UniProt P27815); assay: Inhibition of full length human PDE4A4 using FAM-3',5'-cAMP as substrate after 1 hr by fluorescence polarization assay
[17] = target: T11, 3',5'-cyclic-AMP phosphodiesterase 4C (Homo sapiens, UniProt Q08493); assay: Inhibition of full length human PDE4C1 using FAM-3',5'-cAMP as substrate after 1 hr by fluorescence polarization assay
[18] = target: T7, High affinity 3',5'-cyclic-AMP phosphodiesterase 7A; assay: Inhibition of human PDE7A using FAM-3',5'-cAMP as substrate after 1 hr by fluorescence polarization assay
[19] = target: T12, High affinity cAMP-specific and IBMX-insensitive 3',5'-cyclic phosphodiesterase 8A (Homo sapiens, UniProt O60658); assay: Inhibition of human PDE8A1 at 10^4 nM using FAM-3',5'-cAMP as substrate after 1 hr by fluorescence polarization assay relative to control
[20] = target: T13, 3',5'-cyclic-AMP phosphodiesterase 4D (Homo sapiens, UniProt Q08499); assay: Inhibition of full length human PDE4D7 using FAM-3',5'-cAMP as substrate after 1 hr by fluorescence polarization assay
[21] = target: T9, cGMP-inhibited 3',5'-cyclic phosphodiesterase 3B; assay: Inhibition of human PDE3B at 10^4 nM using FAM-3',5'-cAMP as substrate after 1 hr by fluorescence polarization assay relative to control
Target sequence in this assay (Q13370 whole entry, looked up): as the sequence (Q13370 whole entry) above

[22] = target: T10, 3',5'-cyclic-AMP phosphodiesterase 4A; assay: Inhibition of full length human PDE4A4 at 10^4 nM using FAM-3',5'-cAMP as substrate after 1 hr by fluorescence polarization assay relative to control
[23] = target: T5, cGMP-specific 3',5'-cyclic phosphodiesterase; assay: Inhibition of human PDE5A at 10^4 nM using FAM-3',5'-cAMP as substrate after 1 hr by fluorescence polarization assay relative to control
[24] = target: T8, 3',5'-cyclic-AMP phosphodiesterase 4B; assay: Inhibition of full length human PDE4B1 at 10^4 nM using FAM-3',5'-cAMP as substrate after 1 hr by fluorescence polarization assay relative to control
[25] = target: T14, Cone cGMP-specific 3',5'-cyclic phosphodiesterase subunit alpha' (Homo sapiens, UniProt P51160); assay: Inhibition of human PDE6C using FAM-3',5'-cAMP as substrate after 1 hr by fluorescence polarization assay
[26] = target: T6, cGMP-dependent 3',5'-cyclic phosphodiesterase; assay: Inhibition of human PDE2A using FAM-3',5'-cAMP as substrate after 1 hr by fluorescence polarization assay
[27] = target: T4, High affinity cGMP-specific 3',5'-cyclic phosphodiesterase 9A; assay: Inhibition of human PDE9A2 using FAM-3',5'-cAMP as substrate after 1 hr by fluorescence polarization assay
[28] = target: T13, 3',5'-cyclic-AMP phosphodiesterase 4D; assay: Inhibition of full length human PDE4D7 at 10^4 nM using FAM-3',5'-cAMP as substrate after 1 hr by fluorescence polarization assay relative to control
[29] = target: T14, Cone cGMP-specific 3',5'-cyclic phosphodiesterase subunit alpha'; assay: Inhibition of human PDE6C at 10^4 nM using FAM-3',5'-cAMP as substrate after 1 hr by fluorescence polarization assay relative to control
[30] = target: T12, High affinity cAMP-specific and IBMX-insensitive 3',5'-cyclic phosphodiesterase 8A; assay: Inhibition of human PDE8A1 using FAM-3',5'-cAMP as substrate after 1 hr by fluorescence polarization assay
[31] = target: T11, 3',5'-cyclic-AMP phosphodiesterase 4C; assay: Inhibition of full length human PDE4C1 at 10^4 nM using FAM-3',5'-cAMP as substrate after 1 hr by fluorescence polarization assay relative to control

T14 sequence (P51160 whole entry): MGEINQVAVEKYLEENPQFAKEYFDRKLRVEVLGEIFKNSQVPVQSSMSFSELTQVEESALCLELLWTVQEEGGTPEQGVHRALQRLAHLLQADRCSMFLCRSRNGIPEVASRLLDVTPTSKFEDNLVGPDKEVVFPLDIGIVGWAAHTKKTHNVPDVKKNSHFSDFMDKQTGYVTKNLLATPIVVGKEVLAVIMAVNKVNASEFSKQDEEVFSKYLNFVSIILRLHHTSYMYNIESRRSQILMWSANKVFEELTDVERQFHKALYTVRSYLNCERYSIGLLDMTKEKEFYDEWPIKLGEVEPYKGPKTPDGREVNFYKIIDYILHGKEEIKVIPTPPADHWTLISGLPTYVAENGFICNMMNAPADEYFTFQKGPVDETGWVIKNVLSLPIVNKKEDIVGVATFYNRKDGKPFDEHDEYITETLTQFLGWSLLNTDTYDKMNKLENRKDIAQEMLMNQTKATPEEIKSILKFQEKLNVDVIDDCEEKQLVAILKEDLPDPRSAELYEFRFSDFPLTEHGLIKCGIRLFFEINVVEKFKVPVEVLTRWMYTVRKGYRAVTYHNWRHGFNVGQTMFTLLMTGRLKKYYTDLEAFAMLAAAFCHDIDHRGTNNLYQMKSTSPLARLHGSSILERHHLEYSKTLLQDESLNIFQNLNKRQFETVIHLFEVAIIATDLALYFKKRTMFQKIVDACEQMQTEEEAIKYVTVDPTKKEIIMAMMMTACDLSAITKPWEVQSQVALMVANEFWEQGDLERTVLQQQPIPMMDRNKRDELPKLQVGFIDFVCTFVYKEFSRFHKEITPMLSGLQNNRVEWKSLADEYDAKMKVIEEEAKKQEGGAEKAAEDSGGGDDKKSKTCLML
T3 sequence (P54750 whole entry): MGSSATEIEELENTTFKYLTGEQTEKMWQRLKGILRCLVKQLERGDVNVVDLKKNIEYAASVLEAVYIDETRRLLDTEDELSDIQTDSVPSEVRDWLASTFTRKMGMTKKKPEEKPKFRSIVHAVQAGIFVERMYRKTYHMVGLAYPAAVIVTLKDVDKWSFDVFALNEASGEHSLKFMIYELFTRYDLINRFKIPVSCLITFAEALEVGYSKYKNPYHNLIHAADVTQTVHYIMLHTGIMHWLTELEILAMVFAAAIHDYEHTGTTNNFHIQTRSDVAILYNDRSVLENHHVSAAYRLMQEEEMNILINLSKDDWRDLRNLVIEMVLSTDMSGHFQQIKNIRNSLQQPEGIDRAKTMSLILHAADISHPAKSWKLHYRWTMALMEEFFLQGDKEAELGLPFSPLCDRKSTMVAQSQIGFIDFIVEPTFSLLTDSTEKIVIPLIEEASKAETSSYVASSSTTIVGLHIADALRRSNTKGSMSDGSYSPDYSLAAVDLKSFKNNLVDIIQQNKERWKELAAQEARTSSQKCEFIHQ
T13 sequence (Q08499 whole entry): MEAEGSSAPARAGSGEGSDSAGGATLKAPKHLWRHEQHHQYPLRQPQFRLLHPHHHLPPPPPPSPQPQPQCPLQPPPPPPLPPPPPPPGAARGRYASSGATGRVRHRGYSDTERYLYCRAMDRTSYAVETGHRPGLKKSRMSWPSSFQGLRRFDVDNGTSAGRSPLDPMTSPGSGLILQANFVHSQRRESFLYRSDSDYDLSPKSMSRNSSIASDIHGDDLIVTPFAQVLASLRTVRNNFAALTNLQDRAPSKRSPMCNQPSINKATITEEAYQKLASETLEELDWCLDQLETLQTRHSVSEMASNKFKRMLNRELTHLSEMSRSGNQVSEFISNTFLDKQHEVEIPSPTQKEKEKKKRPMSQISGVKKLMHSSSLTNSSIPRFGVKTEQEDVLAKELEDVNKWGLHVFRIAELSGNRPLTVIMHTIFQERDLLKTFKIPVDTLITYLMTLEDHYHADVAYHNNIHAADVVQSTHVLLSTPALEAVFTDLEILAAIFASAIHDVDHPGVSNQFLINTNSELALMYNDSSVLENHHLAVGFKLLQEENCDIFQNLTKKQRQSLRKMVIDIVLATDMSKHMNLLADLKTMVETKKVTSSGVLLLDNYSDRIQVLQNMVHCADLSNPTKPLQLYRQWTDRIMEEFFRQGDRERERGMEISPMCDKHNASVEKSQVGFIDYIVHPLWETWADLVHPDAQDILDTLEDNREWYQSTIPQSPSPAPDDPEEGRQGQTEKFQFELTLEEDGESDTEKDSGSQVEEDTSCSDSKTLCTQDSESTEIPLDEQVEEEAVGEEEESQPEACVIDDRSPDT
T11 sequence (Q08493 whole entry): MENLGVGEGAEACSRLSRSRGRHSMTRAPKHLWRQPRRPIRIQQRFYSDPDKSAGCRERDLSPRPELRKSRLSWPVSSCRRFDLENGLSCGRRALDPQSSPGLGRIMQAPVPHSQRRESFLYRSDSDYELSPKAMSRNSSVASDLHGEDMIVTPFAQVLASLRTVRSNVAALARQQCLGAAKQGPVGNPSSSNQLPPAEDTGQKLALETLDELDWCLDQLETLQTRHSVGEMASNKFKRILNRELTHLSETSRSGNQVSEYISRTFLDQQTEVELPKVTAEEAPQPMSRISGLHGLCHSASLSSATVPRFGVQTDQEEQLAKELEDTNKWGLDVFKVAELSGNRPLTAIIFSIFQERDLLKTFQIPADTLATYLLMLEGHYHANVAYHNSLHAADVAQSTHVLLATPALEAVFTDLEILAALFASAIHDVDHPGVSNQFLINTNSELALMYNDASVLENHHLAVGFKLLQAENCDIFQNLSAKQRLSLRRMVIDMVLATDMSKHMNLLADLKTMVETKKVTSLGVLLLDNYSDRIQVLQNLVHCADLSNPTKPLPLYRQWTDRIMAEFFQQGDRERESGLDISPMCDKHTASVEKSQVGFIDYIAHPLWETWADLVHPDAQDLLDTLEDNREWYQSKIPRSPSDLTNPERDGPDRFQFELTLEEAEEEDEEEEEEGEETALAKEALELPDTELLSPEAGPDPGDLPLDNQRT
T10 sequence (P27815 whole entry): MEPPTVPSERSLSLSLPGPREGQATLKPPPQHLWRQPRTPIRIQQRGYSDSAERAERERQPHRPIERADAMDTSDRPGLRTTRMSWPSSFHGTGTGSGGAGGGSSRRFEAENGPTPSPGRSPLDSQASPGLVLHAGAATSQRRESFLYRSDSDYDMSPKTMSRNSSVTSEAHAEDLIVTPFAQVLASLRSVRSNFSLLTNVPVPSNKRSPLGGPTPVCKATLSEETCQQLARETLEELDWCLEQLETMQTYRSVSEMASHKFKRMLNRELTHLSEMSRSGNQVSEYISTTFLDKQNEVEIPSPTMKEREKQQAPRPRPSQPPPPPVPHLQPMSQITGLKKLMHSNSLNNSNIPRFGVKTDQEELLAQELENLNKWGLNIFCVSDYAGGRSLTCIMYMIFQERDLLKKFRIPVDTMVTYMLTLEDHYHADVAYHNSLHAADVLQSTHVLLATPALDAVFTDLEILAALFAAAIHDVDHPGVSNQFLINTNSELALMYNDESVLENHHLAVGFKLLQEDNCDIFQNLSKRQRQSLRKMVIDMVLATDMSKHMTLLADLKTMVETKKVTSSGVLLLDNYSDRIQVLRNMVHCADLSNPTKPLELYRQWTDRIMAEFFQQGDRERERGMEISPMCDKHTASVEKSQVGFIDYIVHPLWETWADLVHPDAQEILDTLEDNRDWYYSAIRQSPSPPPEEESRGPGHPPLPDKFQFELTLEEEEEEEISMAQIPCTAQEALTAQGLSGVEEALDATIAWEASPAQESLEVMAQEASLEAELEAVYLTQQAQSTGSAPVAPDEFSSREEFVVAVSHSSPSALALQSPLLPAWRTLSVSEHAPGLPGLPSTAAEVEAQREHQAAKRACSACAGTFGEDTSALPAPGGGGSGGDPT

Compound	IC50 [1] [nM]	Ratio IC50 [2]	IC50 [3] [nM]	inhibition [4] [%]	IC50 [6] [nM]	inhibition [7] [%]	IC50 [8] [nM]	inhibition [9] [%]	inhibition [11] [%]	inhibition [12] [%]	IC50 [13] [nM]	IC50 [14] [nM]	inhibition [15] [%]	IC50 [16] [nM]	IC50 [17] [nM]	IC50 [18] [nM]	inhibition [19] [%]	IC50 [20] [nM]	inhibition [21] [%]	inhibition [22] [%]	other results
COc1ccc(C(=O)N(C)c2ccccn2)cc1OCC1CC1	25100																				
COc1ccc(C(=O)Nc2cccnc2)cc1OC1CCCC1	310	< 18																			
O=C(Nc1ccccc1)c1ccc(OC(F)F)c(OCC2CC2)c1	220	< 18																			
COc1ccc(C(=O)Nc2cccnc2)cc1OCC1CC1	360	< 18																			
O=C(Nc1ccccc1Cl)c1ccc(OC(F)F)c(OCC2CC2)c1	90	< 18	> 100000	5	> 100000	3	> 100000	3	8	7	166	> 100000	6	126	501	> 100000	3	39	13	100	inhibition [5]: Dose-dependent effect; IC50 [10]: > 100000 nM; inhibition [23]: 12%; inhibition [24]: 98%; IC50 [25]: > 100000 nM; IC50 [26]: > 100000 nM; IC50 [27]: > 100000 nM; inhibition [28]: 99%; inhibition [29]: 2%; IC50 [30]: > 100000 nM; inhibition [31]: 96%
CN(C(=O)c1ccc(OC(F)F)c(OCC2CC2)c1)c1ccccn1	2500																				
O=C(Nc1ccccc1)c1ccc(OC(F)F)c(OC2CCCC2)c1	240	< 18																			
O=C(Nc1cccnc1)c1ccc(OC(F)F)c(OCC2CC2)c1	69	< 18	> 100000	85	> 100000	8	> 100000	14	23	7	34	> 100000	20	76	269	> 100000	22	71	6	98	inhibition [23]: 23%; inhibition [24]: 99%; IC50 [25]: > 100000 nM; IC50 [26]: > 100000 nM; IC50 [27]: > 100000 nM; inhibition [28]: 100%; inhibition [29]: 28%; IC50 [30]: > 100000 nM; inhibition [31]: 98%
O=C(Nc1cccnc1)c1ccc(OC(F)F)c(OC2CCCC2)c1	140	< 18	> 100000	76	> 100000	4	> 100000	9	26	3	39	> 100000	0	117	294	> 100000	9	68	6	98	inhibition [23]: 12%; inhibition [24]: 99%; IC50 [25]: > 100000 nM; IC50 [26]: > 100000 nM; IC50 [27]: > 100000 nM; inhibition [28]: 99%; inhibition [29]: 16%; IC50 [30]: > 100000 nM; inhibition [31]: 98%
COc1ccc(C2CNC(=O)C2)cc1OC1CCCC1 (configuration not stated) [ROLIPRAM]	550																				
O=C(Nc1ccccc1Cl)c1ccc(OC(F)F)c(OC2CCCC2)c1	30	< 18	> 100000	7	> 100000	6	> 100000	6	28	3	144	> 100000	3	95	400	> 100000	10	22	6	98	IC50 [10]: > 100000 nM; inhibition [23]: 7%; inhibition [24]: 100%; IC50 [25]: > 100000 nM; IC50 [26]: > 100000 nM; IC50 [27]: > 100000 nM; inhibition [28]: 99%; inhibition [29]: 2%; IC50 [30]: > 100000 nM; inhibition [31]: 97%
COc1ccc(C(=O)N(C)c2ccccn2)cc1OC1CCCC1	9700																				
CN(C(=O)c1ccc(OC(F)F)c(OC2CCCC2)c1)c1ccccn1	1400																				
